# Measured values taken from US20240130999A1, “Inhibition of SLC4A4 in the Treatment of Cancer” (VIB VZW, priority 2021, published 2024).
# Experiments:
# KPC orthotopic tumors [1] = test: DIDS treatment of mice bearing orthotopic KPC tumors (tumor growth, tumor weight); type: in vivo, mouse; conditions: 15 mg/kg DIDS i.p. bi-daily for 10 days
# Experimental: C57BL6/N were injected subcutaneously in the right flank with 1*10^6 Panc02 cells (pancreatic cancer cell line), 2*10^6 KP cells (lung cancer cell line), 0.8*10^6 KR158B cells (glioblastoma cell line), or 5*106 CMT-93 cells (colorectal cancer cell line) in 200 μl. Tumor growth was monitored by measuring the perpendicular diameters of tumors every other day and mice were sacrificed at a humane endpoint. FVB mice were injected orthotopically in the head of the pancreas with 10′000 KPC cells in 20 μl. Body weight was monitored and mice were sacrificed at a humane endpoint. Alternatively, FVB mice were injected subcutaneously in the right flank with 0,5*10^6 KPC cells in 200 μl. Tumor growth was monitored by measuring the perpendicular diameters of tumors every other day and mice were sacrificed at a humane endpoint. For immunotherapy treatment the mice were treated intraperitoneally (i.p.) with 10 mg/kg of either control IgG, anti-PD-1 (αPD-1), anti-PDL1 (αPDL1), or anti-CTLA-4 (αCTLA-4) antibodies (3×/week). For CD8 depletion mice were injected i.p. with an anti-CD8 antibody (10 mg/kg) 3 days before tumor inoculation and then 1 time per week. For in vivo slc4a4 inhibition, mice were treated with 15 mg/kg of 4,4′-Diisothiocyano-2,2′-stilbenedisulfonic acid (DIDS) i.p. bi-daily for a period of 10 days. […]
# KPC orthotopic tumors [2] = test: FACS analysis of immune infiltrate in orthotopic KPC tumors of DIDS-treated mice; type: in vivo, mouse; conditions: WT KPC orthotopic tumors, DIDS vs DMSO, flow cytometry
# Experimental: C57BL6/N were injected subcutaneously in the right flank with 1*10^6 Panc02 cells (pancreatic cancer cell line), 2*10^6 KP cells (lung cancer cell line), 0.8*10^6 KR158B cells (glioblastoma cell line), or 5*106 CMT-93 cells (colorectal cancer cell line) in 200 μl. Tumor growth was monitored by measuring the perpendicular diameters of tumors every other day and mice were sacrificed at a humane endpoint. FVB mice were injected orthotopically in the head of the pancreas with 10′000 KPC cells in 20 μl. Body weight was monitored and mice were sacrificed at a humane endpoint. Alternatively, FVB mice were injected subcutaneously in the right flank with 0,5*10^6 KPC cells in 200 μl. Tumor growth was monitored by measuring the perpendicular diameters of tumors every other day and mice were sacrificed at a humane endpoint. For immunotherapy treatment the mice were treated intraperitoneally (i.p.) with 10 mg/kg of either control IgG, anti-PD-1 (αPD-1), anti-PDL1 (αPDL1), or anti-CTLA-4 (αCTLA-4) antibodies (3×/week). For CD8 depletion mice were injected i.p. with an anti-CD8 antibody (10 mg/kg) 3 days before tumor inoculation and then 1 time per week. For in vivo slc4a4 inhibition, mice were treated with 15 mg/kg of 4,4′-Diisothiocyano-2,2′-stilbenedisulfonic acid (DIDS) i.p. bi-daily for a period of 10 days. Antibodies: Rat serum IgG (14131) (Sigma-Aldrich); Ultra-LEAF™ Purified PD-1anti-mouse (CD279) RMP1-14 (BioLegend); InVivoMAb anti-mouse CTLA-4 (CD152) (BioCell); InVivoMAb anti-mouse CD8α (BioCell); InVivoMab anti-mouse PD-L1 (B7-H1) (BioCell).
# Mice were sacrifice by cervical dislocation and the tumor were harvested in cold PBS. Tumors were minced in alpha MEM (Lonza) containing 0,085 mg/ml Collagenase V (Sigma), 0,125 mg/ml Collagenase D (Roche) and 0,1 mg/ml Dispase (Gibco), and incubated in the same solution for 30 minutes at 37° C. The digested tissues were filtered using a 70-μm pore sized strainer and cells were centrifuged 5 minutes at 300 xg. Red blood cell lysis was performed by using a home-made red blood cell lysis buffer (150 mM NH4Cl, 0.1 mM EDTA, 10 mM KHCO3, pH 7.4. Single cells were resuspended in FACS buffer (PBS containing 2% FBS and 2 mM EDTA) and incubated for 15 minutes with Mouse BD Fc Block purified anti-mouse CD16/CD32 mAb (BD-Pharmingen) and stained for 30 minutes at 4° C. with the following antibodies: Fixable viability dye (eFluor™ 450 or eFluor™ 506, 1:500),CD45 (PE, 1:200), TCRβ (FITC, 1:300), CD4 (PercPcy5.5, 1:400), CD8 (APC-cy7, 1:300), IFNγ (PE-cy7, 1:100), Foxp3 (APC, 1:100), TBet1 (BV421, 1:50)-from BD Biosciences. Cells were subsequently washed and resuspended in FACS buffer before FACS analysis by a FACS Canto II (BD Biosciences). Data was analyzed by Flowio (TreeStar).
smiles,measurement,setting,value
"O=S(=O)(O)c1cc(N=C=S)ccc1C=Cc1ccc(N=C=S)cc1S(=O)(=O)O [DIDS, 4,4′-diisothiocyano-2,2′-stilbenedisulfonic acid]",tumor reduction upon treatment,KPC orthotopic tumors [1]; Slc4a4-KD orthotopic KPC tumors,no differences in tumor reduction
same,tumor growth,"KPC orthotopic tumors [1]; wild-type (control, NT) orthotopic KPC tumors",reduction in tumor growth
same,CD8+ T cells infiltration,KPC orthotopic tumors [2],increase
same,CD8+/CD4+ T cell ratio,KPC orthotopic tumors [2],increase
same,IFNγ expression of CD8+ T cells,KPC orthotopic tumors [2],increase
same,number of CD4+ T cells,KPC orthotopic tumors [2],no differences
same,number of Treg,KPC orthotopic tumors [2],no differences
